Measurements from US8476037B2, “Method for screening of antiviral agents” (priority 2010, dated 2013).

Target: M2(1-49) channel forming segment of the M2 protein (Influenza A virus, UniProt P0DOF5)
Type: cell-based

Sequence of M2(1-49) channel forming segment of the M2 protein (P0DOF5 1-49 limits assumed): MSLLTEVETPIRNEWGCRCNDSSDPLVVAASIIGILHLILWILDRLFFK

Cl.NC12CC3CC(CC(C3)C1)C2 [amantadine, 1-aminoadamantane hydrochloride]
expression of M2(1-49) protein in SPP culture: the M2(1-49) protein was expressed
rescue of expression of M2(1-49) ([…], addition of amantadine): rescued
